Peptide text beside a SMILES is read from it.

For data set [1], the target named is T1, C59A EcMetAP (Escherichia coli, UniProt P0AE18, C59A).
T1 construct: made in house
The data set can be described thus: DTNB inactivation of C59A mutant enzyme. The format is biochemical, E. coli. The note with it: 10 μM DTNB. As for the experimental part:
(§1) Since at least one surface accessible cysteine residue, in addition to Cys59 and Cys70, exists in EcMetAP-I, reaction of DTNB with other residues cannot be ruled out. In order to circumvent this problem, both the C59A and C70A EcMetAP-I mutant enzymes were prepared and purified using the QuikChange Site-directed Mutagenesis Kit (Stratagene) and each mutation was verified by nucleotide sequencing. Both mutant enzymes bind one equivalent of Co(II) or Fe(II) tightly, based on ICP-AES analysis, which is identical to wild-type EcMetAP, and their kinetic parameters are listed below. […] Moreover, the Km values for both Co(II)— and Fe(II)-loaded EcMetAP C59A and C70A double and quadruple, respectively.

For data set [2], the target named is T2, PjMetAP-II (Pyrococcus furiosus, UniProt P56218). In words: DTNB inactivation of type-II MetAP, identical experiments. The format is biochemical. The note with it: even after several hours.
The target in data set [3] is T3, C70A EcMetAP (Escherichia coli, UniProt P0AE18, C70A).
T3 construct: made in house
The data set can be described thus: DTNB inactivation of C70A mutant enzyme. The format is biochemical, E. coli. The note with it: compared with wild-type. How it is done:
as §1

The target in data set [4] is T4, EcMetAP-I (Escherichia coli, UniProt P0AE18).
T4 sequence (P0AE18 1-264): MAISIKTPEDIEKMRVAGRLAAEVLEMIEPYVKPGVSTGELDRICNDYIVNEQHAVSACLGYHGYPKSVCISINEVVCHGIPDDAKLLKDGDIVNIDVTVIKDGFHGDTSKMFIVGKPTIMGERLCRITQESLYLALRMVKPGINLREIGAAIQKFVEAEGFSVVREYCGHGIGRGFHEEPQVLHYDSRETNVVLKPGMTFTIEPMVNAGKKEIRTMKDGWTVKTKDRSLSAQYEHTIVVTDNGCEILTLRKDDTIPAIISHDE
The data set can be described thus: DTNB inactivation of EcMetAP-I, hydrolysis of MP-p-NA. Particulars: 200 μM DTNB, Co(II)-loaded EcMetAP-I, strict anaerobic conditions, pH 7.5, MP-p-NA hydrolysis. The format is biochemical, E. coli. As for the experimental part:
In order to determine if Cys59 and Cys70 are involved in substrate recognition and binding, it was examined if the cysteine-specific chemical modification reagent, 5,5′-dithio-bis(2-nitrobenzoic acid) (DTNB) inhibits the hydrolysis of methionylprolyl-p-nitroanilide (MP-p-NA) by EcMetAP. A 200 μM solution of DTNB was prepared in 50 mM HEPES buffer, pH 7.5, […] and added to a […] sample of Co(II)-loaded EcMetAP-I under strict anaerobic conditions.

In a further data set the target is HsMetAP type-II enzyme (Homo sapiens, UniProt P50579). In words: DTNB effect on catalytic activity of HsMetAP type-II. Type of data set: biochemical. Particulars: 200 μM DTNB.
Another data set has as its target T5, wild-type EcMetAP-I (Escherichia coli, UniProt P0AE18).
T5 sequence (P0AE18 1-264): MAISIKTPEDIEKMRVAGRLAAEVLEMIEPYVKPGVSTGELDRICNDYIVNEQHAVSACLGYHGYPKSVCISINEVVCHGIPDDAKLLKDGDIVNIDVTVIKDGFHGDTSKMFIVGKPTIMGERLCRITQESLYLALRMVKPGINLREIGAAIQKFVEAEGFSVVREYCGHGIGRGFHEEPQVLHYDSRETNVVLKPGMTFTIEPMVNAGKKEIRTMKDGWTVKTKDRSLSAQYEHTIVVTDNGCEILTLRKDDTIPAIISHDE
The data set can be described thus: Reaction of wild-type EcMetAP-I with Inhibitor 1 and Inhibitor 2, catalytic activity. The format is biochemical, E. coli. The note with it: reaction for up to 12 hours. How it is done: (§2) Since only C59 appears to be accessible for covalent modification, two potential inhibitors (Inhibitor 1 and Inhibitor 2, as depicted in FIG. 10) were prepared based on molecular modeling, one of which contains a good leaving group (I^−) and should be susceptible to nucleophilic attack while the second will not undergo nucleophilic addition.

Data set [5] concerns the target T4, EcMetAP-I. The data set can be described thus: MALDI-TOF analysis of EcMetAP-I with and without Inhibitor 1. Type of data set: binding, E. coli. How it is done: Matrix-Assisted Laser Desorption Ionization-Time of Flight (MALDI-TOF) spectrometric analysis was performed on EcMetAP-I in both the presence and absence of Inhibitor 1.
The target of data set [6] is T2, PjMetAP-II. The data set can be described thus: Reaction of type-II MetAP with Inhibitor 1 and Inhibitor 2, catalytic activity. The format is biochemical. The note with it: reaction for up to 12 hours. As for the experimental part: as §2
The target of data set [7] is T3, C70A EcMetAP. In words: Kinetic constants towards MGMM, C70A mutant. The format is biochemical, E. coli. Particulars: 30° C., pH 7.5. As for the experimental part: as §1
Data set [8] addresses T1, C59A EcMetAP. In words: Kinetic constants towards MGMM, C59A mutant. The format is biochemical, E. coli. The note with it: 30° C., pH 7.5. As for the experimental part:
as §1

Substrate in data set [9]: CSCC[C@H](NC(=O)[C@H](CCSC)NC(=O)CNC(=O)[C@@H](N)CCSC)C(=O)O
In words: Kinetic constants towards MGMM, wild-type enzyme. Type of data set: biochemical, E. coli. Particulars: 30° C., pH 7.5. As for the experimental part:
as §1

Turning to `O=C(O)c1cc(SSc2ccc([N+](=O)[O-])c(C(=O)O)c2)ccc1[N+](=O)[O-]` [DTNB, 5,5′-dithio-bis(2-nitrobenzoic acid)], the inactivation rate result on C59A EcMetAP [1] (compared with wild-type) is “slower rate”. Further, the “inactivation of the catalytic activity” value on C59A EcMetAP [1] (strict anaerobic conditions) is given as “complete inactivation”. In addition, the “inactivation due to DTNB” value on PjMetAP-II [2] is listed as “no inactivation”. Further, at C70A EcMetAP [3], the observed inactivation rate result is “identical to wild-type enzyme”. For the same molecule, the “time until EcMetAP was completely inactive after addition of DTNB” value at EcMetAP-I [4] was 50 min. Moreover, on HsMetAP type-II enzyme, the “loss in catalytic activity” value is “no loss in catalytic activity”.

As for `O=P(O)(O)CCCCI` [Inhibitor 1, 4-iodobutylphosphonic acid], the “effect on catalytic activity of EcMetAP-I” value on wild-type EcMetAP-I is “complete and irreversible loss in catalytic activity”. The “shift in mass peak of EcMetAP-I upon reaction (addition)” value at EcMetAP-I [5] (MALDI-TOF, enzyme alone 29,500±10) is recorded as 140 mass units. In addition, on EcMetAP-I [5] (via C59, concluded from MALDI-TOF), the “mode of binding to EcMetAP-I” value is “covalently bound”. In addition, on PjMetAP-II [6], the “inhibition of type-II MetAP” value was “not significantly inhibited”.

Consider `O=C(O)CCCCCP(=O)(O)O` [Inhibitor 2, 6-phosphonhexanoic acid], for which the “effect on catalytic activity of EcMetAP-I” value at wild-type EcMetAP-I is reported as “did not significantly alter”. On PjMetAP-II [6], the “inhibition of type-II MetAP” value is on record as “not significantly inhibited”.

Turning to `CSCC[C@H](NC(=O)[C@H](CCSC)NC(=O)CNC(=O)[C@@H](N)CCSC)C(=O)O` [MGMM] (H-MGMM-OH), the Km was found to be 10 ± 0.2 mM on C70A EcMetAP [7] (Co(II)-loaded), 11 ± 0.2 mM at C70A EcMetAP [7] (Fe(II)-loaded), 6.4 ± 0.2 mM at C59A EcMetAP [8] (Co(II)-loaded) and 8 ± 0.2 mM on C59A EcMetAP [8] (Fe(II)-loaded).

B1: wild-type EcMetAP (Escherichia coli K-12) (protein)
chain: MAISIKTPEDIEKMRVAGRLAAEVLEMIEPYVKPGVSTGELDRICNDYIVNEQHAVSACLGYHGYPKSVCISINEVVCHGIPDDAKLLKDGDIVNIDVTVIKDGFHGDTSKMFIVGKPTIMGERLCRITQESLYLALRMVKPGINLREIGAAIQKFVEAEGFSVVREYCGHGIGRGFHEEPQVLHYDSRETNVVLKPGMTFTIEPMVNAGKKEIRTMKDGWTVKTKDRSLSAQYEHTIVVTDNGCEILTLRKDDTIPAIISHDE
On to B1, for which, in data set [9] (other: Co(II)-loaded), the Km came to 3.2 ± 0.1 mM, the Vmax is 39 µmol/min/mg, the kcat was found to be 19.5 s⁻¹ and the kcat/Km amounted to 6100 M⁻¹ s⁻¹. Moreover, in data set [9] (other: Fe(II)-loaded), the Km is 2.0 ± 0.3 mM, the maximum rate (Vmax) was 55 µmol/min/mg, the kcat stood at 28 s⁻¹ and the kcat/Km turned out to be 14000 M⁻¹ s⁻¹.

In general, Km refers to the concentration of substrate that gives half-maximal velocity. A word on the Vmax: it is the rate approached at saturating substrate. Usually kcat stands for the number of substrate molecules converted per active site and unit of time at saturation. A word on the kcat/Km: it is the second-order rate constant that governs catalysis at low substrate concentration.

The record behind these values is patent US20050026873A1, “Type-I methionyl aminopeptidases inhibitors in antibacterial targeting” (priority 2003, published 2005).
